Results taken from the NIST ThermoML archive (doi:10.1016/j.fluid.2008.03.004).

Test: xn = mol fraction of the nth substance listed
Details: 101 kPa, Liquid; for speed of sound: Sing-around technique in a fixed-path interferometer

CCOC(C)(C)C [2-ethoxy-2-methylpropane] + Cc1ccccc1C
Details	mass density [kg/m3]	speed of sound [m/s]
305.65 K, x1 = 0.055	860.769	–
305.65 K, x1 = 0.098	854.986	–
305.65 K, x1 = 0.201	840.317	–
305.65 K, x1 = 0.307	825.151	–
305.65 K, x1 = 0.4	811.766	–
305.65 K, x1 = 0.502	797.158	–
305.65 K, x1 = 0.601	783.634	–
305.65 K, x1 = 0.661	775.073	–
305.65 K, x1 = 0.803	755.208	–
305.65 K, x1 = 0.895	742.232	–
305.65 K, x1 = 0.947	735.025	–
305.65 K, x1 = 1	727.038	–
308.15 K, x1 = 0.055	858.631	1287.6
308.15 K, x1 = 0.098	852.826	1274.8
308.15 K, x1 = 0.201	838.108	1241.4
308.15 K, x1 = 0.307	822.889	1205.4
308.15 K, x1 = 0.4	809.458	1176.8
308.15 K, x1 = 0.502	794.798	1143
308.15 K, x1 = 0.601	781.229	1112.4
308.15 K, x1 = 0.661	772.636	1093.1
308.15 K, x1 = 0.803	752.697	1049.4
308.15 K, x1 = 0.895	739.673	1022.1
308.15 K, x1 = 0.947	732.438	1007
308.15 K, x1 = 1	724.443	986.39
310.65 K, x1 = 0.055	856.488	1277.2
310.65 K, x1 = 0.098	850.664	1264.8
310.65 K, x1 = 0.201	835.894	1231.1
310.65 K, x1 = 0.307	820.623	1195
310.65 K, x1 = 0.4	807.147	1166.3
310.65 K, x1 = 0.502	792.433	1132.4
310.65 K, x1 = 0.601	778.816	1101.8
310.65 K, x1 = 0.661	770.192	1082.4
310.65 K, x1 = 0.803	750.176	1038.6
310.65 K, x1 = 0.895	737.1	1011.2
310.65 K, x1 = 0.947	729.838	996
310.65 K, x1 = 1	721.826	975.42
313.15 K, x1 = 0.055	854.337	1267.1
313.15 K, x1 = 0.098	848.496	1254.7
313.15 K, x1 = 0.201	833.676	1220.9
313.15 K, x1 = 0.307	818.351	1184.6
313.15 K, x1 = 0.4	804.83	1155.9
313.15 K, x1 = 0.502	790.061	1121.9
313.15 K, x1 = 0.601	776.395	1091.1
313.15 K, x1 = 0.661	767.738	1071.7
313.15 K, x1 = 0.803	747.65	1027.7
313.15 K, x1 = 0.895	734.522	1000.3
313.15 K, x1 = 0.947	727.227	985.03
313.15 K, x1 = 1	719.179	964.53
315.65 K, x1 = 0.055	852.189	1256.9
315.65 K, x1 = 0.098	846.323	1244.6
315.65 K, x1 = 0.201	831.454	1210.7
315.65 K, x1 = 0.307	816.076	1174.3
315.65 K, x1 = 0.4	802.508	1145.5
315.65 K, x1 = 0.502	787.684	1111.4
315.65 K, x1 = 0.601	773.969	1080.5
315.65 K, x1 = 0.661	765.278	1061
315.65 K, x1 = 0.803	745.112	1017
315.65 K, x1 = 0.895	731.932	989.44
315.65 K, x1 = 0.947	724.606	974.07
315.65 K, x1 = 1	716.527	953.54
318.15 K, x1 = 0.055	850.034	1246.8
318.15 K, x1 = 0.098	844.148	1234.5
318.15 K, x1 = 0.201	829.229	1200.6
318.15 K, x1 = 0.307	813.795	1164.1
318.15 K, x1 = 0.4	800.179	1135.1
318.15 K, x1 = 0.502	785.298	1100.9
318.15 K, x1 = 0.601	771.536	1070
318.15 K, x1 = 0.661	762.809	1050.4
318.15 K, x1 = 0.803	742.564	1006.2
318.15 K, x1 = 0.895	729.329	978.59
318.15 K, x1 = 0.947	721.974	963.16
318.15 K, x1 = 1	713.96	942.67
320.65 K, x1 = 0.055	847.874	1236.7
320.65 K, x1 = 0.098	841.964	1224.5
320.65 K, x1 = 0.201	826.995	1190.5
320.65 K, x1 = 0.307	811.507	1153.8
320.65 K, x1 = 0.4	797.84	1124.8
320.65 K, x1 = 0.502	782.908	1090.4
320.65 K, x1 = 0.601	769.096	1059.4
320.65 K, x1 = 0.661	760.332	1039.8
320.65 K, x1 = 0.803	740.007	995.53
320.65 K, x1 = 0.895	726.717	967.79
320.65 K, x1 = 0.947	719.329	952.29
320.65 K, x1 = 1	711.25	931.73
323.15 K, x1 = 0.055	845.711	1226.7
323.15 K, x1 = 0.098	839.779	1214.5
323.15 K, x1 = 0.201	824.757	1180.4
323.15 K, x1 = 0.307	809.216	1143.6
323.15 K, x1 = 0.4	795.504	1114.5
323.15 K, x1 = 0.502	780.509	1080
323.15 K, x1 = 0.601	766.647	1049
323.15 K, x1 = 0.661	757.845	1029.2
323.15 K, x1 = 0.803	737.438	984.84
323.15 K, x1 = 0.895	724.092	957.05
323.15 K, x1 = 0.947	716.673	941.53
323.15 K, x1 = 1	708.642	920.73
